We go through 8 molecules from patent US5648259A, “Polypeptides having NMDA receptor activity, nucleic acids encoding those polypeptides and applications” (priority 1992, dated 1997).

Experiment [1] deals with GR33 polypeptide SEQ ID No. 2. The experiment can be described thus: Pharmacological and electrophysiological study of Xenopus eggs microinjected with GR33 mRNA (induced current under applied potential). Type of experiment: cell-based, rat. The note with it: for effect on response induced by NMDA (200 μM): antagonist applied (200 μM) simultaneously with NMDA; for effect of competitive antagonist on responses to NMDA: concentration not given. As for the experimental part:
The cDNA fragment isolated in Example 2 was transcribed into mRNA and microinjected into Xenopus eggs. The microinjected eggs thereby obtained were then tested for their capacity to bind certain labelled NMDA receptor ligands, or for their behaviour with respect to modulators of NMDA receptors.
The plasmid containing the 1.7-kb cDNA coding for the GR33 polypeptide SEQ ID No. 2 was linearized in the presence of the enzyme SmaI, and then subjected to a transcription step in the presence of phage T7 RNA polymerase. Transcription was performed using the Stratagene Kit according to the manufacturer's recommendations.
The synthetic RNA obtained above, dissolved in sterile water, was used (5 ng) for injection into mature Xenopus eggs (stages V and VI) in a volume of 50 nl. The eggs were then maintained for 3 days at 19° C. in multi well plates in a Barth medium supplemented with antibiotics (Miledi and Sumikawa, Biomed. Res. 3 (1982) 390).
The eggs thereby obtained were then tested for the presence of functional NMDA receptors at their surface. For this purpose, the eggs were transferred to modified OR-2 medium lacking magnesium, of composition: 88 mM NaCl, 2.5 mM KCl, 1 mM CaCl2, 10 mM HEPES buffer, pH 7.4 adjusted with sodium hydroxide. The different drugs (ligands or modulators) were applied by perfusion (10 ml/min) for 10-30 seconds under an applied potential difference of -80 or -90 mV.

Experiment [2] deals with GR33 polypeptide SEQ ID No. 2. Described as above. Type of experiment: cell-based, rat.
Another experiment relates to known NMDA receptors. The note with it: cited from earlier work.

pEC50: −log10 of the molar value.

For the molecule `N[C@H](CCCCCP(=O)(O)O)C(=O)O` [AP7, D-2-amino-7-phosphonoheptanoic acid], in experiment [1], the “effect on response induced by NMDA (200 μM)” value (shortened to “effect on response induced”) is recorded as “abolished” and the “effect of competitive antagonist on responses to NMDA” value was “reduced”. With `[Mg+2]` [magnesium], the “effect on response induced” value in experiment [2] (magnesium 200 μM added to the medium) was “decreased”. In the experiment with known NMDA receptors, the “effect on activity of known NMDA receptors” value is “completely inhibits”. Moreover, the “inhibitory effect of magnesium on GR33 activity” value in experiment [1] was 30-70%. Consider `N[C@@H](Cn1oc(=O)[nH]c1=O)C(=O)O` [quisqualate], for which the “induction of inward current” value in experiment [1] (quisqualate 50 μM) is on record as “little or no effect”. Take `[Ca+2]` [calcium]: the “effect on response induced” value in experiment [2] (external calcium concentration increased to 2.5 mM) is on record as “decreased”. Also, in the experiment with known NMDA receptors, the “effect on activity of known NMDA receptors” value is reported as “stimulates”. For the same molecule, the “effect of calcium on GR33 activity” value in experiment [1] is reported as “inhibitory effect”. Turning to `N[C@H](CCCP(=O)(O)O)C(=O)O` [AP5, D-2-amino-5-phosphonovaleric acid], in experiment [1], the “effect on response induced” value was “abolished” and the “effect of competitive antagonist on responses to NMDA” value was “reduced”. For `N[C@@H](CCC(=O)O)C(=O)O` [glutamate, Glutamic acid], the “strength of response among excitatory amino acids tested (glutamate, kainate, quisqualate, homocysteate)” value in experiment [1] is “strongest responses”. Besides, in experiment [1] (glutamate 0.1-1 mM, perfusion 10-30 s, -80 or -90 mV), the “induction of inward current” value is “induces an inward current”. Consider `C=C(C)[C@H]1CN[C@H](C(=O)O)[C@H]1CC(=O)O` [kainate], for which the “induction of inward current” value in experiment [1] (kainate) is given as “little or no effect”.

Take `CN[C@H](CC(=O)O)C(=O)O` [NMDA, N-methyl-D-aspartate]: the pEC50 in experiment [1] (GR33 expressed in Xenopus eggs, read-out: NMDA concentration giving 50% of the maximum response (ED50)) was approximately 5.00.
